Measured values taken from PubChem BioAssay (NCI).
Values joined by “and” are separate entries in the source; they are usually repeats but may differ in a detail not shown here. Equal values may be shown once.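 In this assay, cells in 96-well plates receive the compound at five concentrations for 48 hours. Endpoints are linearly interpolated between the surrounding concentrations. Abbreviation: GI50, concentration required for 50% inhibition of growth. At the TGI there is no net growth.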

Tests used:
Assay in all cases: NCI tumour cell line growth inhibition, 48 h
[1] = system: LXFL 529 NSCLC
[2] = system: DMS 114 small cell lung
[3] = system: DMS 273 small cell lung
[4] = system: RXF-631 renal
[5] = system: SNB-78 CNS
[6] = system: MDA-MB-435
[7] = system: HOP-18 NSCLC
[8] = system: MDA-N

Compound	TGI [1] [µM]	TGI [2] [µM]	TGI [3] [µM]	TGI [5] [µM]	GI50 [6] [µM]	TGI [6]	also measured
Cn1c(=O)c2[nH]cnc2n(CC(=O)O)c1=O	> 100	> 100	> 100	> 100			TGI [4]: > 100 µM
OCCCCC#Cc1ccccc1C#Cc1cccs1					16.6	30.8 µM	
O=C(Nc1ccccc1)OCc1nc2c([nH]1)C(=O)C=CC2=O	11.1		42	45.3			TGI [7]: 23 µM
COc1cc(CCC(=O)NS(=O)(=O)c2ccccc2)cc(OC)c1OC	> 100	> 100	> 100	> 100			TGI [7]: > 100 µM
CN1CCN(c2ccc([N+](=O)[O-])c3no[n+]([O-])c23)CC1					0.642	2.51 µM and 1.99 µM	TGI [8]: 2.74 µM
CCOC(=O)c1cn2ncnc(Oc3ccc(NC(=O)NCCN(CC)CC)c(Cl)c3)c2c1C					1.87	3.51 µM	
ClC1=C(Cl)C(Cl)=C(Cl)C1=Cc1ccc(Cl)cc1Cl					0.521	2.05 µM	
C=C(C)C(=O)N1c2ccc(OC)cc2CC1C(=O)OCC (stereo not given)							TGI [8]: > 100 µM
C=C(C)C1CCC2(CO)C(O)CC3(C)C(CCC4C5(C)CCC(O)C(C)(C)C5CCC43C)C12 (stereo not given)						38.3 µM	TGI [8]: > 100 µM
C/C(CC(=O)Nc1ccc(NC(=O)/C(C)=N/NS(=O)(=O)c2ccc(C)cc2)cc1)=N\NS(=O)(=O)c1ccc(C)cc1	> 100	> 100		> 100			
COc1ccc2nc(C3=CN(C4OC(CO)C(O)C(O)C4O)C4C=CC=CC34)sc2c1 (stereo not given)					37.1	> 100 µM	
NC(=O)C12CCC1C1CCCCC12N1CCOCC1 (stereo not given)	> 100			> 100			TGI [7]: > 100 µM; TGI [4]: > 100 µM
C[C@@H]1CCC2[C@@H](C)[C@H](OC(=O)CCC(=O)NCCNC(=O)Cc3cc(=O)oc4cc(N(C)C)ccc34)O[C@@H]3O[C@]4(C)CC[C@@H]1C23OO4 (stereo not given in full)					0.472	16.8 µM	
CC(=O)NNc1nc(C)c(C(/C=C/c2ccc(Cl)cc2)=N/NC(=S)NN)s1	> 100	> 100	> 100	> 100			TGI [7]: > 100 µM; TGI [4]: > 100 µM
c1ccc([P+](CCC[P+](c2ccccc2)(c2ccccc2)c2ccccc2)(c2ccccc2)c2ccccc2)cc1	> 100	71	47.9	> 100	4.84	> 100 µM	TGI [7]: > 100 µM; TGI [4]: > 100 µM
Cc1[nH]ccc2cc3nc4ccccc4c3cc12					2.89	12.7 µM	
C#CCOc1cccc(Nc2ncnc3c2ncn3C2CCN(C(=O)CCl)C2)c1 (stereo not given)					20.4	53.5 µM	
COC(=O)C1=C2CO[C@@H]3C[C@H]4C(C)(C)CCC[C@]4(C)C(=CC1)[C@]23C					16.7	37.5 µM	
COc1cc(C(=C2SCCS2)c2nccc3cc(OC)c(OC)cc23)c([N+](=O)[O-])cc1OC	> 100	> 100	> 100	> 100			TGI [7]: > 100 µM
Cc1cc(S(=O)(=O)Nc2nc3ccsc3c(=O)n2Cc2ccccc2)c(S)cc1Cl					29.3	91.6 µM	

Compound	TGI [1] [µM]	TGI [2] [µM]	TGI [3] [µM]	TGI [5] [µM]	GI50 [6] [µM]	TGI [6]	also measured
CSc1ccc(C(=O)/C=C/c2ccc(F)cc2)cc1					33.5	78.3 µM	
Cc1cc(Cl)ccc1Nc1nc(C(F)(F)F)ccc1C(=O)N/N=C/c1ccc(N(C)C)cc1					4.02	> 100 µM	
N#CNc1nc(C(=O)Nc2ccc(Cl)cc2)cc(-c2ccccc2)n1	> 100	> 100	> 100	> 100			TGI [7]: > 100 µM; TGI [4]: > 100 µM
CCc1ccccc1NC(=O)C1=C(C)NC(C)=C(C(=O)Nc2ccccc2CC)C1c1ccc(NC(C)=O)cc1	87.2	> 100		82.1			
CCN1CCN(c2nc(C)cc(N(CCCNc3ccnc4cc(Cl)ccc34)Cc3ccco3)n2)CC1					1.7	3.24 µM	
O=C(O)CCc1nc(-c2ccccc2)c(-c2ccccc2)o1						> 100 µM	TGI [8]: > 100 µM
CC1(C)CC(O)CCCCCCOc2c(CN)cccc2NC(=O)c2nc(cnc2N)-c2ccc(cc2)S1(=O)=O (stereo not given)					0.558	2.16 µM	
CC(=O)[CH-]C(=O)c1ccccc1.CC(=O)[CH-]C(=O)c1ccccc1.CC[O-].O=C1C=C([O-])C(=O)c2ccccc21.[Ti+4]	> 100		> 100				GI50 [1]: 48.8 µM; GI50 [7]: 95.4 µM; TGI [7]: > 100 µM; GI50 [3]: 96.4 µM
CN(/C(=N\O)c1ccccc1)c1ccccc1	> 100	86.1	50.7	88.7			
c1cc(C2N3CCCN2CC3)ccn1 (stereo not given)						89.2 µM	TGI [8]: > 100 µM
CN(Cc1ccccc1)c1nc(=[N+](C)C)ss1	> 100	> 100	> 100	> 100			TGI [7]: > 100 µM; TGI [4]: > 100 µM
O/N=C1/C(=C/c2ccccc2)CCCC1C(NO)c1ccccc1 (stereo not given)	> 100	> 100	> 100	> 100			TGI [7]: > 100 µM; TGI [4]: > 100 µM
CC(C)(C)n1cc(-c2ccnc(NCCCNS(=O)(=O)c3ccc(Cl)cc3)c2)c(-c2cccc(O)c2)n1					1.79	3.41 µM	
COc1ccc(Cn2cc3c(c2-c2ccccc2)CCc2cncnc2-3)cc1					2.49	11.8 µM	
COc1ccc(NCc2c(O)ccc3ccccc23)cc1						> 100 µM	TGI [8]: > 100 µM
COc1ccc(Cn2c3c(c4c(O)cccc42)C(=O)c2ccccc2-3)cc1					13.3	30.8 µM	
CCCCCCCCCCC(CN(CC)CC)C(O)c1ccccc1 (stereo not given)					1.72	3.23 µM	
COC(=O)C(C(=O)C(=O)Nc1ccc(C)cc1C)c1nc2ccc([N+](=O)[O-])cc2[nH]c1=O (stereo not given)	> 100	> 100	> 100	> 100			TGI [7]: > 100 µM; TGI [4]: > 100 µM
CCOC(CN(C)C(=O)OCC(Cl)(Cl)Cl)OCC						> 100 µM	TGI [8]: > 100 µM
